According to US4515941A, “23-Demycinosyldesmycosin derivatives” (Toyo Jozo Kabushiki Kaisha, priority 1982, dated 1985):
Converted amounts (≈) assume the structure as drawn. Where two headings read alike, the source gives them in different places.

Experiments:
Assay type in all cases: cell-based
[1] = system: Staphylococcus aureus ATCC 6538P; experiment: MIC, Staphylococcus aureus ATCC 6538P; details: ATCC6538P, read-out: MIC
[2] = system: Staphylococcus aureus MS353; experiment: MIC, Staphylococcus aureus MS353; details: Staphylococcus aureus MS353; read-out: MIC
[3] = system: Staphylococcus aureus MS353 C36; experiment: MIC, Staphylococcus aureus MS353 C36; details: MS353C36
[4] = system: Staphylococcus aureus MS353 A0; experiment: MIC, Staphylococcus aureus MS353 A0 (macrolide resistant); details: MS353A0, macrolide resistant bacteria A group
Text: (§1) *macrolide resistant bacteria A group (clinical isolates of erythromycin,
(§2) oleandomycin and 16membered macrolide antibiotic resistant strains.)

[5] = system: Staphylococcus aureus 0119; experiment: MIC, Staphylococcus aureus 0119 (macrolide resistant); details: macrolide resistant bacteria A group
Text: as §1, §2

[6] = system: Staphylococcus aureus 0127; experiment: MIC, Staphylococcus aureus 0127 (macrolide resistant)
Text: as §1, §2

[7] = system: Staphylococcus epidermis sp-al-1; experiment: MIC, Staphylococcus epidermis sp-al-1; details: SPAL1; Staphylococcus epidermis sp-al-1; read-out: MIC
[8] = system: Streptococcus pyogenes N.Y.5; experiment: MIC, Streptococcus pyogenes N.Y.5; details: read-out: MIC
[9] = system: Streptococcus pyogenes 1022; experiment: MIC, Streptococcus pyogenes 1022 (macrolide resistant); details: Streptococcus pyogenes 1022; macrolide resistant bacteria A group; read-out: MIC
Text: as §1, §2

[10] = system: Streptococcus faecalis 1501; experiment: MIC, Streptococcus faecalis 1501; details: Enterococcus faecalis; Streptococcus faecalis 1501; read-out: MIC
[11] = system: Streptococcus agalactiae 1020; experiment: MIC, Streptococcus agalactiae 1020; details: Streptococcus agalactiae 1020; read-out: MIC
Sarcina lutea ATCC 9341 = experiment: MIC, Sarcina lutea ATCC 9341; details: Micrococcus luteus, ATCC9341
[12] = system: Micrococcus flavus ATCC 10240; experiment: MIC, Micrococcus flavus ATCC 10240; details: ATCC10240; Micrococcus flavus ATCC 10240; read-out: MIC
[13] = system: Corynebacterium diptheriae P.Y.8; experiment: MIC, Corynebacterium diptheriae P.Y.8; details: Corynebacterium diptheriae P.Y.8; read-out: MIC
[14] = system: Bacillus subtilis ATC 6633; experiment: MIC, Bacillus subtilis ATC 6633; details: ATC6633; Bacillus subtilis ATC 6633; read-out: MIC
[15] = system: Escherichia coli NIHJ-JC2; experiment: MIC, Escherichia coli NIHJ-JC2; details: NIHJJC2
Escherichia coli B = experiment: MIC, Escherichia coli B
[16] = system: Klebsiella pneumoniae ATCC 10031; experiment: MIC, Klebsiella pneumoniae ATCC 10031; details: ATCC10031; Klebsiella pneumoniae ATCC 10031; read-out: MIC
Salmonella typhosa H901 = experiment: MIC, Salmonella typhosa H901; details: Salmonella enterica, TYPHOSA
[17] = system: Salmonella enteritidis Gaertner; experiment: MIC, Salmonella enteritidis Gaertner; details: Salmonella enterica; Salmonella enteritidis Gaertner; read-out: MIC
[18] = system: Shigella flexineri type 3a; experiment: MIC, Shigella flexineri type 3a; details: TYPE3A
Shigella sonnei E33 = experiment: MIC, Shigella sonnei E33
Proteus vulgaris OX19 = experiment: MIC, Proteus vulgaris OX19; details: Proteus vulgaris OX19; read-out: MIC
Serratia marcescens = experiment: MIC, Serratia marcescens; details: read-out: MIC
[19] = system: Pseudomonas aeruginosa IAM 1095; experiment: MIC, Pseudomonas aeruginosa IAM 1095; details: IAM1095; Pseudomonas aeruginosa IAM 1095; read-out: MIC

| Compound | MIC [1] [µg/mL] | MIC [2] [µg/mL] | MIC [3] [µg/mL] | MIC [4] [µg/mL] | MIC [5] [µg/mL] | MIC [7] [µg/mL] | MIC [8] [µg/mL] | MIC [9] [µg/mL] | MIC [10] [µg/mL] | MIC [11] [µg/mL] | MIC (Sarcina lutea ATCC 9341) [µg/mL] | MIC [12] [µg/mL] | MIC [13] [µg/mL] | MIC [14] [µg/mL] | MIC [15] [µg/mL] | MIC (Escherichia coli B) [µg/mL] | MIC [16] [µg/mL] | MIC (Salmonella typhosa H901) [µg/mL] | MIC [17] [µg/mL] | MIC [18] [µg/mL] | further results |
| --- | --- | --- | --- | --- | --- | --- | --- | --- | --- | --- | --- | --- | --- | --- | --- | --- | --- | --- | --- | --- | --- |
| CCC1OC(=O)CC(O)C(C)C(OC2OC(C)C(O)C(N(C)C)C2O)C(CC=O)CC(C)C(=O)C=CC(C)=CC1COc1ccc(Cl)cc1Cl (centres unmarked) | 0.2 (≈ 0.269 µM) | 0.2 (≈ 0.269 µM) | 0.1 (≈ 0.135 µM) | 12.5 (≈ 16.8 µM) | 25 (≈ 33.7 µM) | ≤ 0.05 | ≤ 0.05 | 6.3 (≈ 8.48 µM) | 0.1 (≈ 0.135 µM) | ≤ 0.05 | ≤ 0.05 | ≤ 0.05 | ≤ 0.05 | 0.1 (≈ 0.135 µM) | > 100 | > 100 | 3.1 (≈ 4.17 µM) | > 100 | > 100 | 25 (≈ 33.7 µM) | MIC ([6]; Staphylococcus aureus, 0127): 12.5 µg/mL (≈ 16.8 µM); MIC (Shigella sonnei E33): > 100 µg/mL; MIC (Proteus vulgaris OX19): 25 µg/mL (≈ 33.7 µM); MIC (Serratia marcescens): 25 µg/mL (≈ 33.7 µM); MIC [19]: > 100 µg/mL |
| CCC1OC(=O)CC(O)C(C)C(OC2OC(C)C(O)C(N(C)C)C2O)C(CC=O)CC(C)C(=O)C=CC(C)=CC1COc1cccc(N(CC)CC)c1 (centres unmarked) | 0.8 (≈ 1.07 µM) | 0.4 (≈ 0.537 µM) | 0.4 (≈ 0.537 µM) | 25 (≈ 33.6 µM) | 50 (≈ 67.1 µM) | 0.2 (≈ 0.268 µM) | 0.1 (≈ 0.134 µM) | 12.5 (≈ 16.8 µM) | 0.2 (≈ 0.268 µM) | 0.1 (≈ 0.134 µM) | 0.1 (≈ 0.134 µM) | 0.1 (≈ 0.134 µM) | ≤ 0.05 | 0.2 (≈ 0.268 µM) | > 100 | > 100 | 3.1 (≈ 4.16 µM) | > 100 | > 100 | 50 (≈ 67.1 µM) | MIC ([6]; Staphylococcus aureus 0127, macrolide resistant bacteria A group, read-out: MIC): 25 µg/mL (≈ 33.6 µM); MIC (Shigella sonnei E33): > 100 µg/mL; MIC (Proteus vulgaris OX19): 25 µg/mL (≈ 33.6 µM); MIC (Serratia marcescens): > 100 µg/mL; MIC [19]: > 100 µg/mL |
